Laboratory results reported in US6110962A, “11-aryl-benzo[B]naphtho[2,3-D]furans and 11-aryl-benzo[B]naphtho[2,3-D]thiophenes useful in the treatment of insulin resistance and hyperglycemia” (American Home Products Corporation, priority 1999, dated 2000).
Where two headings read alike, the source gives them in different places.

Key:
[1] = molecular target: T1, Human recombinant PTP1B (Homo sapiens, UniProt P18031); format: biochemical; details: read-out: IC50
T1 construct: made in house
T1 sequence (P18031 1-435): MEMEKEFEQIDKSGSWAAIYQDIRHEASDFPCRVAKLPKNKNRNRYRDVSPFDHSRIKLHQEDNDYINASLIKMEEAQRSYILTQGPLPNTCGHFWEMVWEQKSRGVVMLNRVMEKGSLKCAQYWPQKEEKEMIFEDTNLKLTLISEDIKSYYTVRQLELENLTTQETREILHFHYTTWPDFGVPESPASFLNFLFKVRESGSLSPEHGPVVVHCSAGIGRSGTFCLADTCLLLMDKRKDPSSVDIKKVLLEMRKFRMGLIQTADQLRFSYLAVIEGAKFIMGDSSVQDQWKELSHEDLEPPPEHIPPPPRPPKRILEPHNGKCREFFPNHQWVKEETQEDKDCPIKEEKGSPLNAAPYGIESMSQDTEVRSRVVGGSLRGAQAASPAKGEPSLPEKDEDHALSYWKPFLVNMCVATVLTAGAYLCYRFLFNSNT

[2] = system: diabetic (ob/ob) mice; assay: Blood glucose lowering activity in diabetic (ob/ob) mice; format: in vivo, mouse; details: Mus musculus, po, ob/ob mice
Method: The blood glucose lowering activity of representative compounds of this invention were determined in an in vivo standard procedure using diabetic (ob/ob) mice. The procedures used and results obtained are briefly described below. The non-insulin dependent diabetic (NIDDM) syndrome can be typically characterizes by obesity, hyperglycemia, abnormal insulin secretion, hyperinsulinemia and insulin resistance. […] In each test procedure, mice [Male or female ob/ob (C57 B1/6J) and their lean litermates (ob+ or +/+, Jackson Laboratories) ages 2 to 5 months (10 to 65 g)] of a similar age were randomized according to body weight into 4 groups of 10 mice. The mice were housed 5 per cage and are maintained on normal rodent chow with water ad libitum. Mice received test compound daily by gavage (suspended in 0.5 ml of 0.5% methyl cellulose); dissolved in the drinking water; or admixed in the diet. […] The dose is calculated based on the fed weekly body weight and is expressed as active moiety. […] Control mice received vehicle only. On the morning of Day 4, 7 or 14 two drops of blood (approximetly 50 ul) were collected into sodium fluoride containing tubes either from the tail vein or after decapitation. For those studies in which the compound was administered daily by gavage the blood samples were collected two hours after compound administration. The plasma was isolated by centrifugation and the concentration of glucose is measured enzymatically on an Abbott V. P. Analyzer. […] Analysis of variance followed by Dunett's Comparison Test (one-tailed) are used to estimate the significant difference between the plasma glucose values from the control group and the individual compound treated groups (CMS SAS Release 5.18).

[3] = system: rat hepatic microsomal PTPases; details: PTPase activity, compound at 50 μM
[4] = 96 h, plasma glucose Day 4, 7 or 14, read-out: % Change Glucose from Vehicle
[5] = read-out: % Change Insulin from Vehicle

SMILES	IC50 [1]	change in vivo at 25 mg/kg [2, 4]	change in vivo at 25 mg/kg [2, 5]	% Change from Control [3]	change in vivo at 100 mg/kg [2, 4]	change in vivo at 100 mg/kg [2, 5]	change in vivo at 5 mg/kg [2, 4]	change in vivo at 10 mg/kg [2, 4]	change in vivo at 5 mg/kg [2, 5]	change in vivo at 10 mg/kg [2, 5]
O=C(O)[C@@H](Cc1ccccc1)Oc1c(Br)cc(-c2c3ccccc3c(Cl)c3sc4ccccc4c23)cc1Br [Example 127, (R)-2-{2,6-Dibromo-4-(6-chloro-benzo[b]naphtho[2,3-d]thiophen-11-yl)-phenoxy}-3-phenyl-propionic acid]	64 nM	-18.8%	-76.5%	-37.08%	–	–	–	–	–	–
O=C(O)[C@@H](Cc1ccccc1)Oc1c(Br)cc(-c2c3ccccc3c(Sc3ccccc3)c3sc4ccccc4c23)cc1Br [Example 128, (R)-2-[2,6-Dibromo-4-(6-phenylsulfanyl-benzo[b]naphtho[2,3-d]thiophen-11-yl)-phenoxy]-3-phenyl-propionic acid]	25 nM	3.1%	-38.8%	-50.94%	–	–	–	–	–	–
C[C@@H](Oc1c(Br)cc(-c2c3ccccc3c(Sc3ccccc3)c3sc4ccccc4c23)cc1Br)C(=O)O [Example 129, (R)-2-[2,6-Dibromo-4-(6-phenylsulfanyl-benzo[b]naphthor[2,3-d]thiophen-11-yl)-phenoxy]-propionic acid]	46 nM	-14.9%	-54.6%	-59.03%	–	–	–	–	–	–
C[C@@H](Oc1c(Br)cc(-c2c3ccccc3c(I)c3sc4ccccc4c23)cc1Br)C(=O)O [Example 135, (R)-2-[2,6-Dibromo-4-(6-iodo-benzo[b]naphtho[2,3-d]thiophen-11-yl]-phenoxy]-propionic acid]	209 nM	-15.8%	-57.4%	-59.75%	–	–	–	–	–	–
O=C(O)[C@@H](Cc1ccccc1)Oc1c(Br)cc(-c2c3ccccc3c(I)c3sc4ccccc4c23)cc1Br [Example 136]	50 nM	-23.6%	-52%	-63.42%	–	–	–	–	–	–
Cc1cc(-c2c3ccccc3c(C)c3sc4ccccc4c23)cc(C)c1O[C@H](Cc1ccccc1)C(=O)O [Example 138, (R)-2-[2,6-Dimethyl-4-(6-methyl-benzo[b]naphtho[2,3-d]thiophen-11-yl)-phenoxy]-3-phenyl-propionic acid]	636 nM	-13.8%	-91.9%	-69.13%	–	–	–	–	–	–
CC(C)c1cc(-c2c3ccccc3c(Br)c3sc4ccccc4c23)cc(C(C)C)c1O[C@H](Cc1ccccc1)C(=O)O [Example 139, (2R)-2-[4-(6-Bromo-benzo[b]naphtho[2,3-d]thiophen-11-yl)-2,6-diisopropyl-phenoxy)-3-phenyl-propionic acid]	61 nM	-18.5%	-22%	-64.89%	–	–	–	–	–	–
O=C(O)[C@@H](CCN1C(=O)c2ccccc2C1=O)Oc1c(Br)cc(-c2c3ccccc3cc3sc4ccccc4c23)cc1Br [Example 146, (R)-2-(4-Benzo[b]naphtho[2,3-d]thiophen-11-yl-2,6-dibromo-phenoxy)-4-(1,3-dioxo-1 , 3-dihydro-isoindol-2-yl)-butyric acid]	64 nM	–	–	-71.95%	-45.8%	-56.2%	–	–	–	–
O=C(O)C(Cc1ccc(F)cc1)Oc1c(Br)cc(-c2c3ccccc3c(Br)c3sc4ccccc4c23)cc1Br (stereo not shown) [Example 155, 2-[2,6-Dibromo-4-(6-bromo-benzo[b]naphtho[2,3-d]thiophen-11-yl)-phenoxy]-3-(4-fluoro-phenyl)-propionic acid]	56 nM	-28.9%	-63.2%	-82.25%	–	–	–	–	–	–
Brc1cc(-c2c3ccccc3c(Br)c3sc4ccccc4c23)cc(Br)c1O[C@H](Cc1ccccc1)c1nnn[nH]1 [Example 172, (R)-5-{1-[2,6-Dibromo-4-(6-bromo-benzo[b]naphtho[2,3-d]thiophen-11-yl)-phenoxy]-2-phenyl-ethyl}-1 H-tetrazole]	76 nM	–	–	-70.95%	5.62%	-52%	–	–	–	–
O=C(O)[C@@H](Cc1ccccc1)Oc1c(Br)cc(-c2c3c(c(Br)c4ccccc24)S(=O)(=O)c2ccccc2-3)cc1Br [Example 189]	1390 nM	–	–	-89.32%	-46.8%	11%	–	–	–	–
COc1cc(-c2c3ccccc3c(Br)c3sc4ccccc4c23)cc(Br)c1O[C@H](Cc1ccccc1)C(=O)O [Example 194, (R)-2-[2-Bromo-4-(6-bromo-benzo[b]naphtho[2,3-d]thiophen-11-yl)-6-methoxy-phenoxy]-3-phenyl-propionic acid]	217 nM	-32%	–	-79.35%	–	–	–	–	–	–
O=C(O)[C@@H](Cc1ccccc1)Oc1c(F)ccc(-c2c3ccccc3c(Br)c3sc4ccccc4c23)c1F [Example 203, (R)-2-[]3-(6-Bromo-benzo[b]naphtho[2,3-d]thiophen11-yl)-2.6-difluoro-phenoxyl-3-phenyl-propionic acid]	402 nM	–	–	-86.47%	-16.1%	-91%	–	–	–	–
O=C(O)COc1c(Br)cc(-c2c3ccccc3c(Br)c3oc4ccccc4c23)cc1Br [Example 215, [2,6-Dibromo-4-(6-bromo-benzo[b]naphtho[2,3-d]furan-11-yl)-phenoxy]-acetic acid]	490 nM	–	–	-80.93%	-39.4%	-4.66%	–	–	–	–
O=C(O)[C@@H](Cc1ccccc1)Oc1c(Br)cc(-c2c3ccccc3c(Br)c3oc4ccccc4c23)cc1Br [Example 216, (R)-2-[2,6-Dibromo-4-(6-bromo-benzo[b]naphtho[2,3-d]furan-11-yl)-phenoxy]-3-phenyl-propionic acid]	83 nM	–	–	-60.67%	–	–	-14.8%	-28.7%	-55.9%	-69.4%
